Results reported in patent US5149707A, “1-((2-fluorophenyl)(4-fluorophenyl)phenylmethyl)-1H-imidazole useful as antifungal agent” (J. Uriach & Cia, S.A., priority 1988, dated 1992).
In brackets after ≈: the same amount, converted by molar mass.

Experiments:
Type in all cases: cell-based
[1] = tested on: T. mentagrophytes (clinica) (5); experiment: In vitro antifungal activity (MIC), agar dilution; settings: Trichophyton mentagrophytes
Protocol: (§1) The antifungal activity of 1-[(2-fluorophenyl)(4-fluorophenyl)phenylmethyl]-1H-imidazole was shown by its ability to inhibit the growth of different species of yeast and filamentous fungi in vitro. The activity was recorded as the MIC value, that is, the minimum amount of product needed to achieve the complete inhibition of the in vitro growth of the test organism. Testing was performed as follows: a solution of the antifungal agent in ethanol was diluted with DST agar (pH 6.5) or Emmon's Sabouraud dextrose agar to obtain concentrations between 10 and 0.01 mcg/ml, or 80 and 0.16 mcg/m, respectively. The inoculum was standarized in order 1×10^5 cfu/ml, and 10 mcl of each organism was seeded into the agar surface. Incubation was then allowed at 30° C. during 3 days (DST) or 2 days (Emmon's) for yeasts and 10 days for filamentous fungi. Following incubation, the zones of inhibition were measured and compared to an inoculated, drug-free control to yield the MIC value.

C. albicans serotipo A = experiment: In vitro antifungal activity (MIC), agar dilution
Protocol: as §1

C. albicans serotipo B = experiment: In vitro antifungal activity (MIC), agar dilution; settings: Candida albicans
Protocol: as §1

[2] = tested on: T. mentagrophytes (clinica) (3); experiment: In vitro antifungal activity (MIC), agar dilution; settings: Trichophyton mentagrophytes
Protocol: as §1

[3] = tested on: C. guilliermondii SQ 2210; experiment: In vitro antifungal activity (MIC), agar dilution; settings: Meyerozyma guilliermondii
Protocol: as §1

[4] = tested on: Aspergillus fumigatus (1); experiment: In vitro antifungal activity (MIC), agar dilution
Protocol: as §1

[5] = tested on: T. mentagrophytes ATCC 9129; experiment: In vitro antifungal activity (MIC), agar dilution
Protocol: as §1

C. albicans ATCC 10231 = experiment: In vitro antifungal activity (MIC), agar dilution; settings: Candida albicans
Protocol: as §1

[6] = tested on: T. mentagrophytes (clinica) (4); experiment: In vitro antifungal activity (MIC), agar dilution; settings: Trichophyton mentagrophytes
Protocol: as §1

[7] = tested on: C. pseudotropicalis ATCC 28838; experiment: In vitro antifungal activity (MIC), agar dilution; settings: Kluyveromyces marxianus
Protocol: as §1

[8] = tested on: Microsporum audouini ATCC 9079; experiment: In vitro antifungal activity (MIC), agar dilution
Protocol: as §1

[9] = tested on: Microsporum canis (clinica); experiment: In vitro antifungal activity (MIC), agar dilution
Protocol: as §1

[10] = tested on: T. mentagrophytes ATCC 9972; experiment: In vitro antifungal activity (MIC), agar dilution; settings: Trichophyton mentagrophytes
Protocol: as §1

[11] = tested on: T. mentagrophytes (clinica) (2); experiment: In vitro antifungal activity (MIC), agar dilution; settings: Trichophyton mentagrophytes
Protocol: as §1

[12] = tested on: C. parapsilosis (clinica); experiment: In vitro antifungal activity (MIC), agar dilution; settings: Lodderomyces parapsilosis
Protocol: as §1

T. rubrum = experiment: MIC distribution, serial dilutions in Sabouraud gentamycin broth, microplates; settings: # of strains = 6
Protocol: (§2) The antifungal activity of 1-[(2-fluorophenyl)(4-fluorophenyl)phenylmethyl]-1H-imidazole and bifonazole was determined by serial dilutions in Sabouraud gentamycin broth using microplates. The antifungal agent was diluted in 50% ethanol to obtain concentrations between 40 and 0.015 mcg/ml. Inoculum was 10^7 cfu/ml for yeast and 10^6 cfu/ml for dermatophytes. Incubation was allowed at 37° C. during 2 days for yeasts, and at 29° C. during 7 days for dermatophytes. MIC's were determined as in example 18. The MIC distributions obtained in 9 organisms are shown in the next tables.

C. albicans = experiment: as above; settings: # of strains = 50
Protocol: as §2

T. glabrata = experiment: as above; settings: # of strains = 10 = UR-4056/15 Bifonzaole
Protocol: as §2

M. canis = experiment: as above; settings: # of strains = 13
Protocol: as §2

T. mentagrohytes = experiment: as above; settings: # of strains = 17
Protocol: as §2

C. guilliermondii = experiment: as above; settings: MIC column 40 (first); # of strains = 5
Protocol: as §2

C. tropicalis = experiment: as above; settings: # of strains = 30
Protocol: as §2

C. parapsilosis = experiment: as above; settings: # of strains 10 = UR-4056/14 = Bifonazole
Protocol: as §2

C. krusei = experiment: as above; settings: # of strains = 5
Protocol: as §2

[13] = Emmon's Sabouraud dextrose agar

c1ccc(-c2ccc(C(c3ccccc3)n3ccnc3)cc2)cc1 (stereo not drawn) [Bifonazole, 1-[(4-biphenyl)-phenylmethyl]-1H-imidazole, reference compound]
MIC ([1]; DST agar): 1 µg/mL (≈ 3.22 µM) | MIC [1, 13]: 5 µg/mL (≈ 16.1 µM) | MIC (C. albicans serotipo A; Candida albicans): 2.5 µg/mL (≈ 8.05 µM) | MIC (C. albicans serotipo A; [13]): 2.50 µg/mL (≈ 8.05 µM) | MIC (C. albicans serotipo B; DST agar): 10 µg/mL (≈ 32.2 µM) | MIC (C. albicans serotipo B; [13]): 20 µg/mL (≈ 64.4 µM) | MIC ([2]; DST agar): 1 µg/mL (≈ 3.22 µM) | MIC [2, 13]: 5 µg/mL (≈ 16.1 µM) | MIC ([3]; SQ2210, DST agar): 10 µg/mL (≈ 32.2 µM) | MIC ([3]; SQ2210, Emmon's Sabouraud dextrose agar): 5 µg/mL (≈ 16.1 µM) | MIC ([4]; DST agar): 0.1 µg/mL (≈ 0.322 µM) | MIC [4, 13]: 0.31 µg/mL (≈ 0.999 µM) | MIC [5, 13]: 2.50 µg/mL (≈ 8.05 µM) | MIC ([5]; Trichophyton mentagrophytes, ATCC9129): 2.5 µg/mL (≈ 8.05 µM) | MIC (C. albicans ATCC 10231; ATCC10231, DST agar): 1 µg/mL (≈ 3.22 µM) | MIC (C. albicans ATCC 10231; ATCC10231, Emmon's Sabouraud dextrose agar): 0.63 µg/mL (≈ 2.03 µM) | MIC ([6]; DST agar): 0.5 µg/mL (≈ 1.61 µM) | MIC [6, 13]: 5 µg/mL (≈ 16.1 µM) | MIC ([7]; ATCC28838, DST agar): 0.05 µg/mL (≈ 0.161 µM) | MIC ([7]; ATCC28838, Emmon's Sabouraud dextrose agar): 1.25 µg/mL (≈ 4.03 µM) | MIC ([8]; ATCC9079, DST agar): 0.05 µg/mL (≈ 0.161 µM) | MIC ([8]; ATCC9079, Emmon's Sabouraud dextrose agar): 5 µg/mL (≈ 16.1 µM) | MIC ([9]; DST agar): 0.025 µg/mL (≈ 0.0805 µM) | MIC [9, 13]: 2.5 µg/mL (≈ 8.05 µM) | MIC ([10]; ATCC9972, DST agar): 1 µg/mL (≈ 3.22 µM) | MIC ([10]; ATCC9972, Emmon's Sabouraud dextrose agar): 5 µg/mL (≈ 16.1 µM) | MIC ([11]; DST agar): 10 µg/mL (≈ 32.2 µM) | MIC [11, 13]: 80 µg/mL (≈ 258 µM) | MIC ([12]; DST agar): 10 µg/mL (≈ 32.2 µM) | MIC [12, 13]: 20 µg/mL (≈ 64.4 µM) | MIC Distribution (number of strains) (T. rubrum; MIC 0.038): 2 # of strains | MIC Distribution (number of strains) (T. rubrum; MIC 0.3): 1 # of strains | MIC Distribution (number of strains) (T. rubrum; MIC 0.6): 1 # of strains | MIC Distribution (number of strains) (T. rubrum; MIC 5.0): 1 # of strains | MIC Distribution (number of strains) (T. rubrum; MIC column 1.2): 1 # of strains | MIC Distribution (number of strains) (C. albicans; MIC 2.5): 6 # of strains | MIC Distribution (number of strains) (C. albicans; MIC 5.0): 28 # of strains | MIC Distribution (number of strains) (C. albicans; MIC column 10): 11 # of strains | MIC Distribution (number of strains) (C. albicans; MIC column 20): 1 # of strains | MIC Distribution (number of strains) (C. albicans; MIC column 40 (first)): 4 # of strains | MIC Distribution (number of strains) (T. glabrata; MIC 0.15): 1 # of strains | MIC Distribution (number of strains) (T. glabrata; MIC 0.6): 1 # of strains | MIC Distribution (number of strains) (T. glabrata; MIC 2.5): 3 # of strains | MIC Distribution (number of strains) (T. glabrata; MIC 5.0): 5 # of strains | MIC Distribution (number of strains) (T. glabrata; MIC column 10): 3 # of strains | MIC Distribution (number of strains) (T. glabrata; MIC column 40 (first)): 2 # of strains | MIC Distribution (number of strains) (M. canis; MIC 0.038): 1 # of strains | MIC Distribution (number of strains) (M. canis; MIC 2.5): 4 # of strains | MIC Distribution (number of strains) (M. canis; MIC 5.0): 5 # of strains | MIC Distribution (number of strains) (M. canis; MIC column 0.078): 1 # of strains | MIC Distribution (number of strains) (M. canis; MIC column 1.2): 2 # of strains | MIC Distribution (number of strains) (T. mentagrohytes; MIC 0.038): 1 # of strains | MIC Distribution (number of strains) (T. mentagrohytes; MIC 0.6): 1 # of strains | MIC Distribution (number of strains) (T. mentagrohytes; MIC 2.5): 5 # of strains | MIC Distribution (number of strains) (T. mentagrohytes; MIC column 1.2): 10 # of strains | MIC Distribution (number of strains) (C. guilliermondii): 5 # of strains | MIC Distribution (number of strains) (C. tropicalis; MIC 5.0): 2 # of strains | MIC Distribution (number of strains) (C. tropicalis; MIC column 10): 1 # of strains | MIC Distribution (number of strains) (C. tropicalis; MIC column 40 (first)): 27 # of strains | MIC Distribution (number of strains) (C. parapsilosis; MIC 0.6): 1 # of strains | MIC Distribution (number of strains) (C. parapsilosis; MIC 5.0): 1 # of strains | MIC Distribution (number of strains) (C. parapsilosis; MIC column 10): 2 # of strains | MIC Distribution (number of strains) (C. parapsilosis; MIC column 40 (first)): 10 # of strains | MIC Distribution (number of strains) (C. krusei; MIC 2.5): 1 # of strains | MIC Distribution (number of strains) (C. krusei; MIC column 10): 1 # of strains | MIC Distribution (number of strains) (C. krusei; MIC column 40 (first)): 3 # of strains
